Data on 12 molecules can be found in patent publication US20260297065A1, “AROMATIC SUBSTITUENT-CONTAINING (HETERO) ARYL-IMIDAZOLE COMPOUND, AND PREPARATION METHOD THEREFOR AND USE THEREOF” (OPEN SOURCE THERAPEUTICS, priority 2022, published 2026).

The test deals with T1, soluble epoxide hydrolase (sEH) (Homo sapiens, UniProt P34913).
T1 sequence (P34913 1-555): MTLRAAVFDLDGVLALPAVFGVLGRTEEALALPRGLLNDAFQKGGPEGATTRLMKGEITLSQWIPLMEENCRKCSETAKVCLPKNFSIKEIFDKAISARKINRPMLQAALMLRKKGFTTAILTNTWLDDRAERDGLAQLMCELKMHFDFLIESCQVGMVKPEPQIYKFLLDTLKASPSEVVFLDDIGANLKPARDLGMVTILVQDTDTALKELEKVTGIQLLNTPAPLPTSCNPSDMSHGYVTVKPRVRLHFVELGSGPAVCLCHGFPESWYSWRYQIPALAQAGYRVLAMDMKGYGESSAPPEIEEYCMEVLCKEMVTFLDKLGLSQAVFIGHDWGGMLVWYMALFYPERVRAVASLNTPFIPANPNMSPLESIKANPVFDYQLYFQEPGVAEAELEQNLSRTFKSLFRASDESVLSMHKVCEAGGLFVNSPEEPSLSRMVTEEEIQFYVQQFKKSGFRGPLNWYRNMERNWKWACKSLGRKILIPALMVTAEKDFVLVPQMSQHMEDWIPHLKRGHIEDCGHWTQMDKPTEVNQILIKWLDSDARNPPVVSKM
Description: PHOME assay activity test, sEH enzyme inhibition (fluorescence). It is filed as biochemical. As to conditions: PHOME 5 μM, pH 7.0; 10 min pre-incubation; test compound concentration range 20 nM-0.082 nM. How it is done:
This example relates to the relationship between the structure and activity of (hetero)aryl imidazole compounds containing an aromatic substituent. Specifically, the biochemical activity of the (hetero)aryl imidazole compounds containing an aromatic substituent described herein as sEH enzyme inhibitors was evaluated by PHOME assay activity test experiment. The synthesis of the substrates and the test methods required for this test were all based on known literature reports (Analytical Biochemistry 2005, 343, 66-75).
The sEH enzyme activity inhibition experiment was performed in a low binding 96-well plate. The reaction system was 100 μL 25 mM Bis-Tris, pH 7.0, 0.1 mg/mL BSA buffer. The experimental steps of PHOME assay activity test were as follows.
First, a sEH enzyme solution with a final concentration of […] was mixed with compounds of different concentrations (test compound concentration range 20 nM-0.082 nM), and then pre-incubated on a shaker at room temperature for 10 min. The reaction was triggered by adding Phome fluorescent substrate at a final concentration of 5 μM and immediately placed in a Perkin Elmer microplate reader for dynamic monitoring for 1 hour at an excitation wavelength of 330 nm and an emission wavelength of 465 nm, with fluorescence readings at intervals of 1 minute. Graphpad Prism 9.0 software was used to calculate the slope of the fluorescence value increase in each well within 20 minutes, and the slope was used to calibrate the enzyme activity to calculate the inhibition rate of the compound on sEH enzyme activity under different concentration conditions. Finally, Graphpad Prism 9 was used to plot and calculate IC50 values.
The inhibitory activity IC50 values of some compounds against soluble epoxide hydrolase obtained by PHOME assay activity evaluation experiment are shown in Table 4.
As a reminder, the IC50 is the concentration that gives 50% inhibition. High values mean weaker potency, low ones greater potency. With `Cc1cc(N)nnc1-c1cc2[nH]c(-c3ccc(C(F)(F)F)cc3)nc2c(F)c1F` [Compound 103, 5-methyl-6-(2-(4-(trifluoro-methyl)phenyl)-4,5-difluoro-1H-benzo[d]imidazol-6-yl)-pyridazin-3-amine], the half-maximal inhibitory concentration (IC50) was 0.36 nM.

Regarding `Cc1nc(N2CC(C(=O)O)C2)ncc1-c1cc2[nH]c(-c3ccc(C(F)(F)F)cc3)nc2c(F)c1F` [Compound 96, 1-(4-methyl-5-(2-(4-(trifluoro-methyl)phenyl)-4,5-difluoro-1H-benzo[d]imidazol-6-yl)-pyrimidine-2-yl)azetidine-3-carboxylic acid], 0.14 nM corresponded to half-maximal inhibition (IC50).

For `Cc1nc(N2CC(O)C2)ncc1-c1cc2[nH]c(-c3ccc(S(=O)(=O)N(C)C)c(F)c3)nc2c(F)c1F` [Compound 104, 4-(6-(4-methyl-2-(3-hydroxy-azetidin-1-yl)pyrimid-5-yl)-4,5-difluoro-1H-benzo[d]imidazol-2-yl)-2-fluoro-N,N-dimethylbenzenesulfonamide], the half-maximal inhibitory concentration (IC50) is over 20 nM.

In the case of `Cc1nc(N2CC(C(=O)O)C2)ncc1-c1cc2[nH]c(-c3ccc(S(=O)(=O)N(C)C)c(F)c3)nc2c(F)c1F` [Compound 105, 1-(4-methyl-5-(2-(3-fluoro-4-(N,N-dimethylsulfamoyl)phen-yl)-4,5-difluoro-1H-benzo[d]imidazol-6-yl)pyrimidine-2-yl)azetidine-3-carboxylic acid], the half-maximal inhibitory concentration (IC50) is over 20 nM.

In turn, `Cc1nc(N)ncc1-c1nc2[nH]c(-c3ccc(C(F)(F)F)cc3)nc2cc1F` [Compound 102, 4-methyl-5-(2-(4-(trifluoromethyl)phenyl)-6-fluoro-3H-imidazo[4,5-b]pyridin-5-yl)-pyrimidine-2-amine] displayed a half-inhibitory concentration (IC50) of 1.45 nM.

Molecule `N#Cc1nc(N)ncc1-c1cc2[nH]c(-c3ccc(C(F)(F)F)cc3)nc2c(F)c1F` [Compound 95, 2-amino-5-(2-(4-(trifluoro-methyl)phenyl)-4,5-difluoro-1H-benzo[d]imidazol-6-yl)-pyrimidine-4-carbonitrile] came in with an IC50 of under 0.082 nM.

For `Fc1c(-c2cnc(NC3COC3)nc2C(F)F)cc2[nH]c(-c3ccc(C(F)(F)F)cc3)nc2c1F` [Compound 91, 5-(2-(4-(trifluoromethyl)phen-yl)-4,5-difluoro-1H-benzo[d]imidazol-6-yl)-4-(difluoro-methyl)-N-(oxetan-3-yl)pyr-imidine-2-amine], half-maximal inhibition (IC50) was put at 0.61 nM. This lies in the sub-nanomolar range.

In turn, `Cc1nc(N)ncc1-c1cc2[nH]c(-c3ccc4oc(=O)n(C)c4c3)nc2c(F)c1F` [Compound 100, 3-methyl-5-(6-(4-methyl-2-aminopyrimid-5-yl)-4,5-difluoro-1H-benzo[d]imid-azol-2-yl)benzo[d]oxazol-2(3H)-one] showed a half-maximal inhibitory concentration (IC50) of 10.1 nM.

Turning to `Cc1nc(N2CC(O)C2)ncc1-c1cc2[nH]c(-c3ccc(C(F)(F)F)cc3)nc2c(F)c1F` [Compound 93, 1-(4-methyl-5-(2-(4-(trifluoro-methyl)phenyl)-4,5-difluoro-1H-benzo[d]imidazol-6-yl)-pyrimidine-2-yl)azetidin-3-ol], the half-inhibitory concentration (IC50) was under 0.082 nM.

`Cc1nc(N)ncc1-c1cc2[nH]c(-c3ccc(C(F)(F)F)cn3)nc2c(F)c1F` [Compound 101, 4-methyl-5-(2-(5-(trifluoro-methyl)pyrid-2-yl)-4,5-difluoro-1H-benzo[d]imid-azol-6-yl)pyrimidine-2-amine] displayed an IC50 of 0.35 nM. This counts as sub-nanomolar.

Regarding `CN(C)c1nc(N)ncc1-c1cc2[nH]c(-c3ccc(C(F)(F)F)cc3)nc2c(F)c1F` [Compound 92, 5-(2-(4-(trifluoromethyl)phen-yl)-4,5-difluoro-1H-benzo[d]imidazol-6-yl)-N4,N4-dimeth-ylpyrimidine-2,4-diamine], the IC50 is under 0.082 nM.

`Nc1ncc(-c2cc3[nH]c(-c4ccc5c(c4)OC(F)(F)O5)nc3c(F)c2F)c(C(F)F)n1` [Compound 89, 5-(2-(2,2-difluorobenzo[d][1,3]dioxol-5-yl)-4,5-difluoro-1H-benzo[d]imidazol-6-yl)-4-(difluoromethyl)pyrimidine-2-amine] returned a 50% inhibitory concentration (IC50) of 0.35 nM.
